From PubChem BioAssay AID248 (DTP/NCI, 2004)
Where “and” joins values, the source holds several entries; their conditions need not be identical. Identical values can stand only once. Toxic doses and inconclusive results are not listed.

System: L1210 leukemia ip in BDF1 mice, survival T/C
Assay: NCI In Vivo Anticancer Drug Screen. Data for tumor model L1210 Leukemia (intraperitoneal) in B6D2F1 (BDF1) mice
Conditions: endpoint: mean survival time, higher = longer survival
Outline: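 Transplantable tumor model; survival measured in treated vs vehicle control mice. Value = treated/control.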

Nc1ncn(C2OC(CO)C(O)C2O)c(=O)n1 (stereo not given)
T/C (dose: 0.12 mg/kg/injection, schedule: Q01DX009 (ip), vehicle: saline): 111 % of control
T/C (dose: 0.23 mg/kg/injection, schedule: Q01DX009 (ip), vehicle: saline): 101 % of control and 121 % of control
T/C (dose: 0.5 mg/kg/injection, schedule: Q01DX009 (ip), vehicle: saline): 156 % of control
T/C (dose: 0.75 mg/kg/injection, schedule: Q01DX009 (ip), vehicle: other): 161 % of control
T/C (dose: 1.0 mg/kg/injection, schedule: Q01DX005 (oral), vehicle: saline): 114 % of control
T/C (dose: 1.0 mg/kg/injection, schedule: Q## X008 (ip), vehicle: saline): 121 % of control
T/C (dose: 1.0 mg/kg/injection, schedule: Q## X040 (oral), vehicle: saline): 105 % of control
T/C (dose: 1.25 mg/kg/injection, schedule: Q01DX009 (ip), vehicle: saline): 170 % of control
T/C (dose: 1.3 mg/kg/injection, schedule: Q03HX008 (ip), vehicle: saline): 171 % of control
T/C (dose: 1.5 mg/kg/injection, schedule: Q01DX005 (ip), vehicle: clinical formulation): 150 % of control
T/C (dose: 1.5 mg/kg/injection, schedule: Q01DX009 (ip), vehicle: water): 164 % of control and 166 % of control
T/C (dose: 2.0 mg/kg/injection, schedule: Q01DX005 (oral), vehicle: saline): 124 % of control
T/C (dose: 2.0 mg/kg/injection, schedule: Q01DX015 (ip), vehicle: other): 159 % of control
T/C (dose: 2.0 mg/kg/injection, schedule: Q03HX008 (ip), vehicle: saline): 155 % of control
T/C (dose: 2.0 mg/kg/injection, schedule: Q## X024 (ip), vehicle: saline): 151 % of control
T/C (dose: 2.0 mg/kg/injection, schedule: Q## X040 (oral), vehicle: saline): 108 % of control
T/C (dose: 2.3 mg/kg/injection, schedule: Q04DX002 (ip), vehicle: saline): 117 % of control and 123 % of control
T/C (dose: 2.5 mg/kg/injection, schedule: Q01DX009 (ip), vehicle: carboxymethylcellulose (CMC)): 155 % of control
T/C (dose: 3.0 mg/kg/injection, schedule: Q01DX001 (ip), vehicle: saline): 119 % of control
T/C (dose: 3.0 mg/kg/injection, schedule: Q01DX005 (ip), vehicle: water): 150 % of control
T/C (dose: 3.0 mg/kg/injection, schedule: Q01DX009 (ip), vehicle: saline with Tween-80): 111 % of control
T/C (dose: 3.0 mg/kg/injection, schedule: Q01DX009 (oral), vehicle: saline): 158 % of control
T/C (dose: 3.0 mg/kg/injection, schedule: Q03HX008 (ip), vehicle: saline): 170 % of control
T/C (dose: 3.12 mg/kg/injection, schedule: Q01DX009 (ip), vehicle: saline): 164 % of control
T/C (dose: 3.12 mg/kg/injection, schedule: Q04DX003 (ip), vehicle: water): 157 % of control and 160 % of control
T/C (dose: 4.0 mg/kg/injection, schedule: Q## X024 (ip), vehicle: saline): 168 % of control
T/C (dose: 6.0 mg/kg/injection, schedule: Q01DX005 (ip), vehicle: water): 112 % of control
T/C (dose: 6.0 mg/kg/injection, schedule: Q01DX009 (ip), vehicle: clinical formulation): 103 % of control
T/C (dose: 6.0 mg/kg/injection, schedule: Q01DX009 (ip), vehicle: other): 104 % of control
T/C (dose: 6.0 mg/kg/injection, schedule: Q01DX009 (ip), vehicle: saline): 98 % of control
T/C (dose: 6.0 mg/kg/injection, schedule: Q01DX009 (ip), vehicle: water): 94 % of control
T/C (dose: 6.0 mg/kg/injection, schedule: Q01DX009 (oral), vehicle: saline): 172 % of control
T/C (dose: 6.0 mg/kg/injection, schedule: Q## X008 (ip), vehicle: saline): 156 % of control
T/C (dose: 7.2 mg/kg/injection, schedule: Q01DX009 (ip), vehicle: saline): 111 % of control
T/C (dose: 8.0 mg/kg/injection, schedule: Q01DX005 (oral), vehicle: saline): 164 % of control
T/C (dose: 8.0 mg/kg/injection, schedule: Q## X040 (oral), vehicle: saline): 163 % of control
T/C (dose: 10.0 mg/kg/injection, schedule: Q01DX009 (ip), vehicle: saline): 111 % of control
T/C (dose: 12.0 mg/kg/injection, schedule: Q01DX001 (ip), vehicle: saline): 150 % of control
T/C (dose: 12.0 mg/kg/injection, schedule: Q01DX005 (ip), vehicle: saline): 168 % of control
T/C (dose: 12.0 mg/kg/injection, schedule: Q01DX009 (ip), vehicle: saline): 98 % of control
